# Where “and” joins values, the source holds several entries; their conditions need not be identical. Equal entries are not always repeated. Toxic doses and inconclusive results are not listed.
# System: BDF1 mice, L1210 leukemia sc, survival T/C
# Assay: NCI In Vivo Anticancer Drug Screen. Data for tumor model L1210 Leukemia (subcutaneous) in B6D2F1 (BDF1) mice
# Settings: endpoint: median survival time, higher = longer survival
# Procedure, shortened: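 Expressed as T/C: measurement in compound-treated, tumor-bearing mice relative to vehicle-treated control mice, based on survival or tumor size.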
structure (smiles),measurement,setting,value
CC(CN1CC(=O)NC(=O)C1)N1CC(=O)NC(=O)C1 (stereo unspecified),T/C,"dose: 3.12 mg/kg/injection, schedule: Q03HX024 (ip), vehicle: other",115 % of control
same,T/C,"dose: 3.12 mg/kg/injection, schedule: Q03HX024 (ip), vehicle: steriod suspending solution",111 % of control
same,T/C,"dose: 6.25 mg/kg/injection, schedule: Q03HX024 (ip), vehicle: other",156 % of control
same,T/C,"dose: 6.25 mg/kg/injection, schedule: Q03HX024 (ip), vehicle: steriod suspending solution",155 % of control
same,T/C,"dose: 8.4 mg/kg/injection, schedule: Q03HX024 (sc), vehicle: Klucel (hydroxypropylcellulose) (HPC)",150 % of control
same,T/C,"dose: 10.0 mg/kg/injection, schedule: Q03HX024 (sc), vehicle: Klucel (hydroxypropylcellulose) (HPC)",184 % of control and 185 % of control
same,T/C,"dose: 12.5 mg/kg/injection, schedule: Q01DX009 (sc), vehicle: steriod suspending solution",105 % of control
same,T/C,"dose: 12.5 mg/kg/injection, schedule: Q03HX024 (ip), vehicle: other",191 % of control
same,T/C,"dose: 12.5 mg/kg/injection, schedule: Q03HX024 (ip), vehicle: steriod suspending solution",161 % of control
same,T/C,"dose: 14.0 mg/kg/injection, schedule: Q03HX024 (sc), vehicle: Klucel (hydroxypropylcellulose) (HPC)",180 % of control
same,T/C,"dose: 16.0 mg/kg/injection, schedule: Q01DX009 (ip), vehicle: Klucel (hydroxypropylcellulose) (HPC)",109 % of control and 124 % of control
same,T/C,"dose: 16.0 mg/kg/injection, schedule: Q01DX009 (ip), vehicle: other",119 % of control
same,T/C,"dose: 20.0 mg/kg/injection, schedule: Q03HX024 (sc), vehicle: Klucel (hydroxypropylcellulose) (HPC)",194 % of control and 195 % of control
same,T/C,"dose: 23.0 mg/kg/injection, schedule: Q03HX024 (sc), vehicle: Klucel (hydroxypropylcellulose) (HPC)",200 % of control
same,T/C,"dose: 25.0 mg/kg/injection, schedule: Q01DX009 (sc), vehicle: steriod suspending solution",120 % of control
same,T/C,"dose: 25.0 mg/kg/injection, schedule: Q03HX024 (ip), vehicle: other",160 % of control
same,T/C,"dose: 25.0 mg/kg/injection, schedule: Q03HX024 (ip), vehicle: steriod suspending solution",155 % of control
same,T/C,"dose: 39.0 mg/kg/injection, schedule: Q03HX024 (sc), vehicle: Klucel (hydroxypropylcellulose) (HPC)",205 % of control
same,T/C,"dose: 40.0 mg/kg/injection, schedule: Q03HX024 (sc), vehicle: Klucel (hydroxypropylcellulose) (HPC)",199 % of control and 200 % of control
same,T/C,"dose: 50.0 mg/kg/injection, schedule: Q01DX009 (ip), vehicle: steriod suspending solution",150 % of control
same,T/C,"dose: 50.0 mg/kg/injection, schedule: Q01DX009 (sc), vehicle: steriod suspending solution",155 % of control
same,T/C,"dose: 50.0 mg/kg/injection, schedule: Q04DX003 (sc), vehicle: Klucel (hydroxypropylcellulose) (HPC)",110 % of control and 112 % of control
same,T/C,"dose: 64.0 mg/kg/injection, schedule: Q01DX009 (ip), vehicle: Klucel (hydroxypropylcellulose) (HPC)",154 % of control
same,T/C,"dose: 65.0 mg/kg/injection, schedule: Q01DX009 (sc), vehicle: Klucel (hydroxypropylcellulose) (HPC)",170 % of control
same,T/C,"dose: 65.0 mg/kg/injection, schedule: Q03HX024 (sc), vehicle: Klucel (hydroxypropylcellulose) (HPC)",205 % of control
same,T/C,"dose: 80.0 mg/kg/injection, schedule: Q03HX024 (sc), vehicle: Klucel (hydroxypropylcellulose) (HPC)",118 % of control and 120 % of control
same,T/C,"dose: 100.0 mg/kg/injection, schedule: Q01DX009 (ip), vehicle: steriod suspending solution",110 % of control
same,T/C,"dose: 100.0 mg/kg/injection, schedule: Q01DX009 (sc), vehicle: steriod suspending solution",150 % of control and 175 % of control
same,T/C,"dose: 100.0 mg/kg/injection, schedule: Q04DX003 (ip), vehicle: other",117 % of control
same,T/C,"dose: 100.0 mg/kg/injection, schedule: Q04DX003 (ip), vehicle: steriod suspending solution",120 % of control
same,T/C,"dose: 100.0 mg/kg/injection, schedule: Q04DX003 (sc), vehicle: steriod suspending solution",100 % of control and 120 % of control
same,T/C,"dose: 108.0 mg/kg/injection, schedule: Q01DX009 (sc), vehicle: Klucel (hydroxypropylcellulose) (HPC)",160 % of control
same,T/C,"dose: 108.0 mg/kg/injection, schedule: Q04DX003 (sc), vehicle: Klucel (hydroxypropylcellulose) (HPC)",118 % of control and 122 % of control
same,T/C,"dose: 200.0 mg/kg/injection, schedule: Q01DX009 (ip), vehicle: steriod suspending solution",90 % of control
same,T/C,"dose: 200.0 mg/kg/injection, schedule: Q01DX009 (sc), vehicle: steriod suspending solution",90 % of control
same,T/C,"dose: 200.0 mg/kg/injection, schedule: Q04DX003 (ip), vehicle: Klucel (hydroxypropylcellulose) (HPC)",150 % of control
same,T/C,"dose: 200.0 mg/kg/injection, schedule: Q04DX003 (ip), vehicle: other",175 % of control
same,T/C,"dose: 200.0 mg/kg/injection, schedule: Q04DX003 (ip), vehicle: steriod suspending solution",150 % of control and 175 % of control
same,T/C,"dose: 200.0 mg/kg/injection, schedule: Q04DX003 (sc), vehicle: steriod suspending solution",100 % of control
same,T/C,"dose: 256.0 mg/kg/injection, schedule: Q01DX009 (ip), vehicle: Klucel (hydroxypropylcellulose) (HPC)",116 % of control and 121 % of control
same,T/C,"dose: 256.0 mg/kg/injection, schedule: Q01DX009 (ip), vehicle: other",105 % of control
same,T/C,"dose: 300.0 mg/kg/injection, schedule: Q01DX009 (sc), vehicle: Klucel (hydroxypropylcellulose) (HPC)",120 % of control
same,T/C,"dose: 300.0 mg/kg/injection, schedule: Q04DX003 (sc), vehicle: Klucel (hydroxypropylcellulose) (HPC)",160 % of control and 169 % of control and 177 % of control
same,T/C,"dose: 400.0 mg/kg/injection, schedule: Q04DX003 (ip), vehicle: Klucel (hydroxypropylcellulose) (HPC)",206 % of control
same,T/C,"dose: 400.0 mg/kg/injection, schedule: Q04DX003 (ip), vehicle: other",156 % of control and 207 % of control
same,T/C,"dose: 400.0 mg/kg/injection, schedule: Q04DX003 (ip), vehicle: steriod suspending solution",155 % of control and 185 % of control and 205 % of control
same,T/C,"dose: 500.0 mg/kg/injection, schedule: Q01DX009 (sc), vehicle: Klucel (hydroxypropylcellulose) (HPC)",100 % of control
same,T/C,"dose: 512.0 mg/kg/injection, schedule: Q01DX009 (ip), vehicle: Klucel (hydroxypropylcellulose) (HPC)",107 % of control
same,T/C,"dose: 800.0 mg/kg/injection, schedule: Q04DX003 (ip), vehicle: Klucel (hydroxypropylcellulose) (HPC)",112 % of control
same,T/C,"dose: 800.0 mg/kg/injection, schedule: Q04DX003 (ip), vehicle: other",111 % of control and 118 % of control
same,T/C,"dose: 800.0 mg/kg/injection, schedule: Q04DX003 (ip), vehicle: steriod suspending solution",100 % of control and 110 % of control and 120 % of control
same,T/C,"dose: 800.0 mg/kg/injection, schedule: Q04DX003 (sc), vehicle: steriod suspending solution",110 % of control and 120 % of control
same,T/C,"dose: 833.0 mg/kg/injection, schedule: Q04DX003 (oral), vehicle: Klucel (hydroxypropylcellulose) (HPC)",161 % of control and 168 % of control
same,T/C,"dose: 833.0 mg/kg/injection, schedule: Q04DX003 (sc), vehicle: Klucel (hydroxypropylcellulose) (HPC)",107 % of control and 111 % of control
same,T/C,"dose: 840.0 mg/kg/injection, schedule: Q04DX003 (oral), vehicle: Klucel (hydroxypropylcellulose) (HPC)",186 % of control and 188 % of control
same,T/C,"dose: 1388.0 mg/kg/injection, schedule: Q04DX003 (sc), vehicle: Klucel (hydroxypropylcellulose) (HPC)",100 % of control

# From PubChem BioAssay AID250 (DTP/NCI, 2004)
